Data taken from patent US10160755B2 (Plexxikon Inc., priority 2015, dated 2018).

Columns and labels:
FLT3-ITD = biological target: T1, FLT3-ITD (Homo sapiens, UniProt P36888); assay: FLT3-ITD biochemical kinase assay (AlphaScreen)
T1 construct: FLT3-ITD; Invitrogen #PV6190
T1 sequence (P36888 1-993): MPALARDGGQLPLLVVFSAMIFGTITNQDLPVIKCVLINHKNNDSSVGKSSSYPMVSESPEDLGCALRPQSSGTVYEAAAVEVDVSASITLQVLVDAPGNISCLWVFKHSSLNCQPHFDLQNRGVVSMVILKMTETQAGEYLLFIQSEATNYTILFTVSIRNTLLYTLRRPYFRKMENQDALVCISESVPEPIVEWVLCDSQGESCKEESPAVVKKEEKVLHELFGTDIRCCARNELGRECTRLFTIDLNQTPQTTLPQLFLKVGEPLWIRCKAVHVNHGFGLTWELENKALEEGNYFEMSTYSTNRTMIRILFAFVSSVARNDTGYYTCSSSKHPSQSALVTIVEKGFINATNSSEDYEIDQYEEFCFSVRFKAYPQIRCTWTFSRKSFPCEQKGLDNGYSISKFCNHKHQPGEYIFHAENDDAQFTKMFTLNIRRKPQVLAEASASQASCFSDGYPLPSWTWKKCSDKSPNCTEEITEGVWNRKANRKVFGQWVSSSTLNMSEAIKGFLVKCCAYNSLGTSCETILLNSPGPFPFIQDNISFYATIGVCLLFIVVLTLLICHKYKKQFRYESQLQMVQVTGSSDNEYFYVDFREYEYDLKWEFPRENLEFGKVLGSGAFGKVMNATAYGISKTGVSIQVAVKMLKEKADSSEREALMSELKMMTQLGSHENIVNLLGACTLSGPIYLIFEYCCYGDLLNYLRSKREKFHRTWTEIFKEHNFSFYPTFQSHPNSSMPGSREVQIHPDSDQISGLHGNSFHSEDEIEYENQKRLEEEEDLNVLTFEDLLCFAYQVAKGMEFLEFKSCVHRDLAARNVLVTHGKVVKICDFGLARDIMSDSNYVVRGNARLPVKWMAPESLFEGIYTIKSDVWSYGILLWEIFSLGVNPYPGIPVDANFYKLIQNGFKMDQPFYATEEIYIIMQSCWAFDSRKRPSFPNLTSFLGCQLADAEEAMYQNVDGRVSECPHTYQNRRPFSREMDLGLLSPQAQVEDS
Description: (§1) In order to determine the effect of compounds on FLT3 catalytic activity, kinase assays using recombinant enzymes and AlphaScreen® technology have been established. When the kinases are catalytically active, they phosphorylate a biotinylated peptide substrate on tyrosine residues. Using AlphaScreen® technology, the ability of the compounds to affect the catalytic activity of the kinases can be measured quantitatively. The peptide substrate is immobilized by the AlphaScreen® Streptavidin Donor beads and, upon phosphorylation by a tyrosine kinase, can bind to AlphaScreen® Anti-Phosphotyrosine (PY20) Acceptor beads. Upon excitation of these beads with laser light at 680 nm, singlet oxygen is produced. This singlet oxygen is rapidly quenched, unless the AlphaScreen® Anti-Phosphotyrosine (PY20) Acceptor beads are in close proximity, in which case a proximity signal can be measured at 580 nm. In the presence of catalytic activity, there is a very strong proximity signal. Selective kinase inhibitors affect a decrease in this proximity signal through a decrease in tyrosine phosphorylation of the peptide substrate.
(§2) Substrate • Poly (Glu4-Tyr) Peptide, biotin conjugate [Biotin-GG(EEEEY)10EE (SEQ ID NO: 4)] • UBI/Millipore #12-440 • Final concentration=30 nM
(§3) Adenosine Triphosphate (ATP) • Sigma #A-3377 • Final concentration for IC50 determination=10 μM (FLT3-D835Y) or 100 μM (FLT3 or FLT3-ITD) • Detection Reagent • AlphaScreen® Phosphotyrosine (PY20) Assay Kit • Perkin-Elmer #6760601M • Final concentration=10 μg/mL
(§4) Centrifuge 1 minute, shake to mix, and incubate as follows:
(§5) • Mix Streptavidin Donor beads at 6× final concentration in Stop/Detection buffer. • Add 5 μL Streptavidin Donor beads to the reaction plate. Centrifuge 1 minute, shake to mix, and incubate at room temperature for 20 minutes. • Mix Anti-Phosphotyrosine (PY20) Acceptor beads at 6× final concentration in Stop/Detection buffer. • Add 5 μL Anti-Phosphotyrosine (PY20) beads to the reaction plate. • Centrifuge 1 minute, shake to mix, and incubate at room temperature for 60 minutes. • Read plate on Wallac EnVision™ 2103 Multilabel Reader. In Vivo Model System Testing

FLT3-D835Y = biological target: T2, FLT3-D835Y (Homo sapiens, UniProt P36888, D835Y); assay: FLT3-D835Y biochemical kinase assay (AlphaScreen)
T2 construct: purchased Invitrogen PV3967
T2 sequence (P36888 27-993 D835Y): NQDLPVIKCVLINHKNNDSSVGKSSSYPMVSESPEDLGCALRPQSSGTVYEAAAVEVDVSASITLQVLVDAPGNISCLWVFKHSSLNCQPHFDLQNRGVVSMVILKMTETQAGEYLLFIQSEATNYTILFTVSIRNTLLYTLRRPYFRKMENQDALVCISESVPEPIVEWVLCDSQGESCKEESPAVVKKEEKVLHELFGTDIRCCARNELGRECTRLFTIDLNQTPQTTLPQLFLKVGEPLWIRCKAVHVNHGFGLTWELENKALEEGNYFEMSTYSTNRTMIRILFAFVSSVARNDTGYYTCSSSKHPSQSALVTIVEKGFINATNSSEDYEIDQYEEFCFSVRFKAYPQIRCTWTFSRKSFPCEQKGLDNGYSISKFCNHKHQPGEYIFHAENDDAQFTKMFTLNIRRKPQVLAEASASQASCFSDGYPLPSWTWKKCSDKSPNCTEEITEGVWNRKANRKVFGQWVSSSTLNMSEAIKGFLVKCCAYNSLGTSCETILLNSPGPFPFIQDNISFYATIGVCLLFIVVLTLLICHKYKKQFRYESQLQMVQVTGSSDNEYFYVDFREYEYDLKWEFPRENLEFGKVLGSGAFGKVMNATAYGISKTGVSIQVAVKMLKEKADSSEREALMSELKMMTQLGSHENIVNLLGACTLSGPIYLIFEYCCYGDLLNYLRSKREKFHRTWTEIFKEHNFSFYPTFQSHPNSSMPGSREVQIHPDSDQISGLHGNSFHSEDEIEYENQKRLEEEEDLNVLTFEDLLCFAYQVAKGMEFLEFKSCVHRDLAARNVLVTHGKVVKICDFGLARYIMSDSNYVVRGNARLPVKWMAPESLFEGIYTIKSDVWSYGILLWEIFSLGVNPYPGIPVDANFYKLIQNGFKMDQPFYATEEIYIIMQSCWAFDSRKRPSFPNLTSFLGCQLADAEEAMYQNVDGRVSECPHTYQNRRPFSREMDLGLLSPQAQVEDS
Description: as §1, §2, §3, §4, §5

SMILES | IC50 (FLT3-ITD) [µM] | IC50 (FLT3-D835Y) [µM]
COc1cnc2[nH]cc(-c3cnc4ncn(Cc5ccccc5)c4c3)c2c1 [P-143, 1-benzyl-6-(5-methoxy-1H-pyrrolo[2,3-b]pyridin-3-yl)imidazo[4,5-b]pyridine] | 0.0001 to 1 | 0.0001 to 1
CC(C)(C)n1cnc2ccc(-c3c[nH]c4ncc(-c5cnc(C6CC6)nc5)nc34)cc21 [P-342, 7-(3-tert-butylbenzimidazol-5-yl)-2-(2-cyclopropylpyrimidin-5-yl)-5H-pyrrolo[2,3-b]pyrazine] | 0.0001 to 1 | 0.0001 to 1
CC(C)(C)n1cnc2ccc(-c3c[nH]c4ncc(-c5ccc(F)nc5)nc34)cc21 [P-360, 7-(3-tert-butylbenzimidazol-5-yl)-2-(6-fluoro-3-pyridyl)-5H-pyrrolo[2,3-b]pyrazine] | 0.0001 to 1 | 0.0001 to 1
N#Cc1cccc(-c2cnc3[nH]cc(-c4ccc5ncn(C6CCCNC6)c5c4)c3c2)c1 (centres unmarked) [P-200, 3-[3-[3-(3-piperidyl)benzimidazol-5-yl]-1H-pyrrolo[2,3-b]pyridin-5-yl]benzonitrile] | 0.0001 to 1 | 0.0001 to 1
COc1cc(-c2cnc3[nH]cc(-c4ccc5ncn(C6CCCNC6)c5c4)c3c2)ccn1 (centres unmarked) [P-138, 5-(2-methoxy-4-pyridyl)-3-[3-(3-piperidyl)benzimidazol-5-yl]-1H-pyrrolo[2,3-b]pyridine] | 0.0001 to 1 | 0.0001 to 1
Cn1cnc2ccc(-c3c[nH]c4ncc(-c5cccc(N6CCCS6(=O)=O)c5)nc34)cc21 [P-153, 2-[3-[7-(3-methylbenzimidazol-5-yl)-5H-pyrrolo[2,3-b]pyrazin-2-yl]phenyl]-1,2-thiazolidine 1,1-dioxide] | 0.0001 to 1 | 0.0001 to 1
COc1cc(-c2cnc3[nH]cc(-c4ccc5ncn(C6CCCNC6)c5c4)c3n2)ccn1 (centres unmarked) [P-136, 2-(2-methoxypyridin-4-yl)-7-(1-(piperidin-3-yl)-1H-benzo[d]imidazol-6-yl)-5H-pyrrolo[2,3-b]pyrazine] | 0.0001 to 1 | 0.0001 to 1
Cc1cc(-c2cnc3[nH]cc(-c4ccc5ncn(C(C)(C)C)c5c4)c3n2)ccn1 [P-403, 7-(3-tert-butylbenzimidazol-5-yl)-2-(2-methyl-4-pyridyl)-5H-pyrrolo[2,3-b]pyrazine] | 0.0001 to 1 | 
CC(C)(C)n1cnc2ccc(-c3c[nH]c4ncc(-c5cccc(OCC6CC6)c5)cc34)cc21 [P-373, 1-tert-butyl-6-[5-[3-(cyclopropylmethoxy)phenyl]-1H-pyrrolo[2,3-b]pyridin-3-yl]benzimidazole] | 0.0001 to 1 | 
CC(C)(C)n1cnc2ccc(-c3c[nH]c4ncc(-c5cccc(OCC#N)c5)cc34)cc21 [P-367, 2-[3-[3-(3-tert-butylbenzimidazol-5-yl)-1H-pyrrolo[2,3-b]pyridin-5-yl]phenoxy]acetonitrile] | 0.0001 to 1 | 
COCCOc1cncc(-c2cnc3[nH]cc(-c4ccc5ncn(C(C)(C)C)c5c4)c3c2)c1 [P-368, 1-tert-butyl-6-[5-[5-(2-methoxyethoxy)-3-pyridyl]-1H-pyrrolo[2,3-b]pyridin-3-yl]benzimidazole] | 0.0001 to 1 | 
COc1cc(-c2cnc3[nH]cc(-c4ccc5ncn(C(C)(C)C)c5c4)c3c2)ccc1C#N [P-372, 4-[3-(3-tert-butylbenzimidazol-5-yl)-1H-pyrrolo[2,3-b]pyridin-5-yl]-2-methoxy-benzonitrile] | 0.0001 to 1 | 
C=CCS(=O)(=O)Nc1cccc(-c2cnc3[nH]cc(-c4ccc5ncn(C(C)(C)C)c5c4)c3c2)c1 [P-375, N-[3-[3-(3-tert-butylbenzimidazol-5-yl)-1H-pyrrolo[2,3-b]pyridin-5-yl]phenyl]prop-2-ene-1-sulfonamide] | 0.0001 to 1 | 
COc1ccc(-c2cnc3[nH]cc(-c4ccc5ncn(C(C)(C)C)c5c4)c3c2)cc1NS(C)(=O)=O [P-370, N-[5-[3-(3-tert-butylbenzimidazol-5-yl)-1H-pyrrolo[2,3-b]pyridin-5-yl]-2-methoxy-phenyl]methanesulfonamide] | 0.0001 to 1 | 

Second part, the compound after the results:

IC50 (FLT3-ITD) [µM] | IC50 (FLT3-D835Y) [µM] | SMILES
0.0001 to 1 | 0.0001 to 1 | CC(C)(C)n1cnc2ccc(-c3c[nH]c4ncc(-c5cccc(C#N)c5)cc34)cc21 [P-199, 3-[3-(3-tert-butylbenzimidazol-5-yl)-1H-pyrrolo[2,3-b]pyridin-5-yl]benzonitrile]
0.0001 to 1 |  | CC(C)(C)n1cnc2ccc(-c3c[nH]c4ncc(-c5cnc(NC6CC6)nc5)cc34)cc21 [P-400, 5-[3-(3-tert-butylbenzimidazol-5-yl)-1H-pyrrolo[2,3-b]pyridin-5-yl]-N-cyclopropyl-pyrimidin-2-amine]
0.0001 to 1 |  | CC(C)(C)n1cnc2ccc(-c3c[nH]c4ncc(-c5cnc(C#N)nc5)cc34)cc21 [P-396, 5-[3-(3-tert-butylbenzimidazol-5-yl)-1H-pyrrolo[2,3-b]pyridin-5-yl]pyrimidine-2-carbonitrile]
0.0001 to 1 |  | Cc1cc(-c2cnc3[nH]cc(-c4ccc5ncn(C(C)(C)C)c5c4)c3c2)cnc1F [P-394, 1-tert-butyl-6-[5-(6-fluoro-5-methyl-3-pyridyl)-1H-pyrrolo[2,3-b]pyridin-3-yl]benzimidazole]
0.0001 to 1 |  | CN(C)c1ncc(-c2cnc3[nH]cc(-c4ccc5ncn(C(C)(C)C)c5c4)c3c2)cn1 [P-401, 5-[3-(3-tert-butylbenzimidazol-5-yl)-1H-pyrrolo[2,3-b]pyridin-5-yl]-N,N-dimethyl-pyrimidin-2-amine]
0.0001 to 1 |  | Cc1cc(-c2cnc3[nH]cc(-c4ccc5ncn(C(C)(C)C)c5c4)c3c2)cnc1C#N [P-393, 5-[3-(3-tert-butylbenzimidazol-5-yl)-1H-pyrrolo[2,3-b]pyridin-5-yl]-3-methyl-pyridine-2-carbonitrile]
0.0001 to 1 |  | CC(C)(C)n1cnc2ccc(-c3c[nH]c4ncc(-c5cnc(C(=O)O)nc5)cc34)cc21 [P-402, 5-[3-(3-tert-butylbenzimidazol-5-yl)-1H-pyrrolo[2,3-b]pyridin-5-yl]pyrimidine-2-carboxylic acid]
